# Measured values taken from paper PMC9405973, “Altered Conformational Landscape upon Sensing Guanine Nucleotides in a Disease Mutant of Elongation Factor-like 1 (EFL1) GTPase” (Biomolecules, 2022).
# Values joined by “and” are separate entries in the source; they are usually repeats but may differ in a detail not shown here. Identical values can stand only once.
# Biological target: T1, Efl1 R1086Q P151L (Saccharomyces cerevisiae, UniProt P53893, P151L/R1086Q)
# T1 construct: made in house; host or cells: Saccharomyces cerevisiae
# Test: ITC: binding of GTP to double mutant Efl1 R1086Q P151L
# Details: +Mg^2+
# T1 sequence (P53893 whole entry P151L/R1086Q): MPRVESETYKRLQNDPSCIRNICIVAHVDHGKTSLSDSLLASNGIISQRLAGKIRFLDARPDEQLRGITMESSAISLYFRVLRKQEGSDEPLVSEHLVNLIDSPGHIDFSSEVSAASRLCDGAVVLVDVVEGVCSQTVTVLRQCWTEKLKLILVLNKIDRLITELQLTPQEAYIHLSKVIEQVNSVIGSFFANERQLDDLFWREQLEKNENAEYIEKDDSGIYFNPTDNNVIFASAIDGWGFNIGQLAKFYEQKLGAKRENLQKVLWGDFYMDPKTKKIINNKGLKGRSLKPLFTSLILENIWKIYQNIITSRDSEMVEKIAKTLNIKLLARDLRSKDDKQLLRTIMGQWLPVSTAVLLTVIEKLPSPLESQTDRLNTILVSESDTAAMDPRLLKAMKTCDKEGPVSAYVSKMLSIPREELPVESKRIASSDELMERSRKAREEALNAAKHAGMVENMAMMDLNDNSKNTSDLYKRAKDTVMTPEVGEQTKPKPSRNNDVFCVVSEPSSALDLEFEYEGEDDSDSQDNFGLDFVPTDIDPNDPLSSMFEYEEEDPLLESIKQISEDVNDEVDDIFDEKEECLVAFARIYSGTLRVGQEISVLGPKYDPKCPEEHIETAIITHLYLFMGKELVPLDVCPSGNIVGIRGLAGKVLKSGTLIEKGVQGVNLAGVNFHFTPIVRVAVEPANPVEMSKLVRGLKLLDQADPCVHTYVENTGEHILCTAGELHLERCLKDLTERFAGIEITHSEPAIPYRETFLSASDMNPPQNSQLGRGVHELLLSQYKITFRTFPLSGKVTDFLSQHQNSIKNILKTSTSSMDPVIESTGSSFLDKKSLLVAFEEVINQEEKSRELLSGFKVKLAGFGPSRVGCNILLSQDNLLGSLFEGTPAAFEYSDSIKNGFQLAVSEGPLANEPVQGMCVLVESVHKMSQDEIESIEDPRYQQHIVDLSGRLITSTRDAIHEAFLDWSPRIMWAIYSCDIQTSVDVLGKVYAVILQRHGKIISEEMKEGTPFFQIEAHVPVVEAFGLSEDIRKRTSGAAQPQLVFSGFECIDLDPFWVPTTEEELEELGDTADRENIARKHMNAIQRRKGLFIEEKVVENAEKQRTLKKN
compound,measurement,setting,value
Nc1nc2c(ncn2[C@@H]2O[C@H](COP(=O)(O)OP(=O)(O)OP(=O)(O)O)[C@@H](O)[C@H]2O)c(=O)[nH]1 [GTP],-TΔSb,25 °C,-4.8 kcal/mol
same,ΔGb,25 °C,-6.5 kcal/mol
same,ΔHb,25 °C,-1.7 ± 0.1 kcal/mol
same,-TΔSb,30 °C,-4.1 kcal/mol
same,"Nconfres (number of residues changing conformation, absolute value)",30 °C,19
same,"Nconfrotb (number of routable bonds changing conformation, absolute value)",30 °C,19
same,ΔCpconf,30 °C,−195 cal mol^−1 K^−1
same,ΔCprb,30 °C,−25 cal mol^−1 K^−1
same,ΔGb,30 °C,-6.6 kcal/mol
same,ΔHb,30 °C,-2.5 ± 0.1 kcal/mol
same,ΔSb,30 °C,13 cal mol^−1 K^−1
same,ΔSconf,30 °C,−31 cal mol^−1 K^−1
same,ΔSsolv,30 °C,53 cal mol^−1 K^−1
same,−ΔASAconf,30 °C,875 Å^2
same,-TΔSb,35 °C,-2.8 kcal/mol
same,ΔGb,35 °C,-6.7 kcal/mol
same,ΔHb,35 °C,-3.9 ± 0.1 kcal/mol
same,ΔCpb,from ΔHb at 25–35 °C,−220 ± 35 cal mol^−1 K^−1 and −220 cal mol^−1 K^−1
same,Kd,25 °C,18 ± 3 µM
same,Kd,30 °C,17 ± 2 µM
same,Kd,35 °C,18 ± 2 µM
